# Results taken from publication PMC11855230, “Oligoethylene Phosphoramidate‐Based Kinase Inhibitor Prodrugs – Solubility, Enzyme Inhibition, and Hydrolysis” (Chemistry (Weinheim an Der Bergstrasse, Germany), 2025).
# “And” between values parts separate entries of the source, which are not always exact repeats. Equal values may be shown once. Marks after values point to notes of the source that are not given here.
# System: not given
# Assay: not given
# Design: method as in PMID 38923708
# Details: kinetic solubility, values marked a from previous publication ref 21, listed as Ceritninib; cited from earlier work
row,Compound,"c sol (water), solubility limit in water [mM]"
1,Cc1cc(Nc2ncc(Cl)c(Nc3ccccc3S(=O)(=O)C(C)C)n2)c(OC(C)C)cc1C1CCNCC1 [Ceritinib],0.93

# Same assay, conditions: kinetic solubility, values marked a from previous publication ref 21; cited from earlier work
row,Compound,"c sol (water), solubility limit in water"
1,Cc1cc(Nc2ncc(Cl)c(Nc3ccccc3S(=O)(=O)C(C)C)n2)c(OC(C)C)cc1C1CCNCC1 [Ceritinib],≤0.93^a mM
2,C[C@@H](Oc1cc(-c2cnn(C3CCNCC3)c2)cnc1N)c1c(Cl)ccc(F)c1Cl [Crizotinib],≤0.77 ^a mM
3,CC(=O)c1c(C)c2cnc(Nc3ccc(N4CCNCC4)cn3)nc2n(C2CCCC2)c1=O [Palbociclib],≤0.02 ^a mM

# System: HeLa cells
# Assay: Cell uptake in HeLa cells by confocal laser scanning microscopy (CLSM)
# Assay type: cell-based
# Details: 25 μM, 23 h, excitation 405 nm
# Experimental: Altogether an OEG chain length of n=4 seems to be favorable for producing prodrugs with improved solubility from kinase inhibitors. […] Here we therefore concentrate on Rib‐OEG4 . […] The drug and its conjugate are exited at 405 nm, leading to weak fluorescence of the drugs.
# Uptake is followed by Confocal for 23 h using Leica TCS SP8 Lightning confocal microscope with an OnkoLab incubator chamber with a constant temperature of 37 °C and a 5 % CO2 atmosphere at 95 % humidity (gas flow: 0.1 L/min). Drug and drug‐OEG conjugate is excited at 405 nm.
row,Compound,uptake in HeLa cells
1,"CN(C)C(=O)c1cc2cnc(Nc3ccc(N4CCNCC4)cn3)nc2n1C1CCCC1 [Ribociclib, reference compound]",taken up by the cells
2,COCCOCCOCCOCCOP(=O)(OCCOCCOCCOCCOC)N1CCN(c2ccc(Nc3ncc4cc(C(=O)N(C)C)n(C5CCCC5)c4n3)nc2)CC1 [Rib‐OEG4],taken up by the cells

# System: not listed separately
# Assay: pH dependent hydrolysis / drug release by HPLC
# Assay type: physicochemical
# Details: acetate buffer, pH 3, 37 °C
# Excerpt: The working principle of a prodrug is to improve solubility and circulation time and not necessarily to improve binding to the target. However, binding should of course become important when the prodrug has arrived at the designated site and the promoiety is cleaved to release the native drug. In case of the phosphoramidate linked OEG chains, release of the native drug is induced by hydrolysis at low pH.[21, 28, 29, 30, 31, 32] The stability of the phosphoramidate linker and therefore its half‐life depends on the chemical surrounding in the molecule.[28, 29] Since we only change distant substituents by varying the binding motif of the respective kinase inhibitor, we expect only minor influence on the rate of hydrolysis. We investigate the samples at pH 3, 4, 5, 6, and 7.4 over a course of 72 h at 37 °C using high pressure liquid chromatography (HPLC) (see Figure S10–13 and Table S1–11). […]
# High Performance Liquid Chromatography (HPLC): Drug release is monitored on Agilent 1260 Infinity containing the following modules: G1311B Quat Pump, G1329B ALS, G1365D MWD VL in combination with a Jetstream 2 plus column thermostat. […] Flow rate is set to 0.3 mL/min and absorption is detected at 254 nm. […]
# pH Dependent Hydrolysis:[21] […] Drug release percentages are calculated form the ratio of the peak area of drug and drug‐OEG conjugate for 0, 3, 6, 24, 48 and 72 h.
row,Compound,half-life [h]
1,COCCOCCOCCOCCOCCOCCOCCOCCOP(=O)(OCCOCCOCCOCCOCCOCCOCCOCCOC)N1CCC(c2cc(OC(C)C)c(Nc3ncc(Cl)c(Nc4ccccc4S(=O)(=O)C(C)C)n3)cc2C)CC1 [Cer‐OEG8],50

# System: not listed separately
# Assay: Dynamic light scattering (DLS) of drug‐conjugates in water
# Assay type: physicochemical
# Details: DLS in water at critical solution concentration c sol, 25 °C
# Experimental: To study, whether self‐assembly into micelles might have an effect on the solubility limit of the prodrugs, we perform dynamic light scattering (DLS) of the drug‐conjugates in water. […] Micelles below 6 nm (Cer‐OEG8 , Cri‐OEG3 , Cri‐OEG8 , Pal‐OEG3 , Rib‐OEG2 , and Rib‐OEG3 ) are potentially affected by renal clearance.
# Dynamic Light Scattering (DLS): Possible self‐assemblies are investigated with DLS Nano‐Zetasizer (Malvern Instruments) at 25 °C with a scattering angle of 173° at λ=633 nm.
row,Compound,hydrodynamic diameter d [nm]
1,COCCOCCOCCOCCOCCOCCOCCOCCOP(=O)(OCCOCCOCCOCCOCCOCCOCCOCCOC)N1CCN(c2ccc(Nc3ncc4c(C)c(C(C)=O)c(=O)n(C5CCCC5)c4n3)nc2)CC1 [Pal‐OEG8],596
2,COCCOCCOCCOCCOP(=O)(OCCOCCOCCOCCOC)N1CCN(c2ccc(Nc3ncc4cc(C(=O)N(C)C)n(C5CCCC5)c4n3)nc2)CC1 [Rib‐OEG4],92
3,COCCOCCOCCOCCOCCOCCOCCOCCOP(=O)(OCCOCCOCCOCCOCCOCCOCCOCCOC)N1CCN(c2ccc(Nc3ncc4cc(C(=O)N(C)C)n(C5CCCC5)c4n3)nc2)CC1 [Rib‐OEG8],64

# Same assay, conditions: DLS in water, at the concentration given per compound (Figures S2–S5)
Compound,PDI,hydrodynamic diameter [nm]
COCCOCCOCCOCCOCCOCCOCCOCCOP(=O)(OCCOCCOCCOCCOCCOCCOCCOCCOC)N1CCC(c2cc(OC(C)C)c(Nc3ncc(Cl)c(Nc4ccccc4S(=O)(=O)C(C)C)n3)cc2C)CC1 [Cer‐OEG8],0.25,4.9
COCCOCCOCCOCCOCCOCCOCCOCCOP(=O)(OCCOCCOCCOCCOCCOCCOCCOCCOC)N1CCN(c2ccc(Nc3ncc4c(C)c(C(C)=O)c(=O)n(C5CCCC5)c4n3)nc2)CC1 [Pal‐OEG8],0.33,596
COCCOCCOCCOCCOP(=O)(OCCOCCOCCOCCOC)N1CCN(c2ccc(Nc3ncc4cc(C(=O)N(C)C)n(C5CCCC5)c4n3)nc2)CC1 [Rib‐OEG4],0.35,92
COCCOCCOCCOCCOCCOCCOCCOCCOP(=O)(OCCOCCOCCOCCOCCOCCOCCOCCOC)N1CCN(c2ccc(Nc3ncc4cc(C(=O)N(C)C)n(C5CCCC5)c4n3)nc2)CC1 [Rib‐OEG8],0.22,64

# Target: T1, ROS proto‐oncogene 1 (ROS1) (Homo sapiens, UniProt P08922)
# T1 construct: purchased biomol
# Assay: ROS1 cell free enzyme (kinase) inhibition assay, luminescence
# Assay type: biochemical
# Details: 1 % DMSO, duplicates
# Experimental: (§1) Apart from solubility and self‐assembly, we investigate the inhibitory potential against the respectively targeted receptors.
# (§2) Enzyme Binding Studies (ROS1):[21] ROS1 assays are performed with the following substances: Cer‐OEG2 , Cer‐OEG3 , Cer‐OEG8 , Cri‐OEG2 , Cri‐OEG3 and Cri‐OEG8 . The instructions are followed with some specifications: DTT (10 μL of 1 M DTT to 1 mL buffer) is added to the buffer solution and the assay is performed with 1 % DMSO in the final reaction volume. Serial dilutions of inhibitor (5 μL) are mixed with 20 μL enzyme (5 ng/μL), 5 μL of IGF‐1Rtide (1 mg/mL) and 1 μL ATP solution (500 μM) in a 96‐well plate. The blank contains no enzyme and no inhibitor. The positive control contains enzyme but no inhibitor. The receptor inhibitory rate is calculated from the luminescence as IC50. […] Luminescence is recorded on Promega GloMax Navigator Microplate Luminometer. Samples are prepared in duplicates.
# T1 sequence (P08922 28-2347): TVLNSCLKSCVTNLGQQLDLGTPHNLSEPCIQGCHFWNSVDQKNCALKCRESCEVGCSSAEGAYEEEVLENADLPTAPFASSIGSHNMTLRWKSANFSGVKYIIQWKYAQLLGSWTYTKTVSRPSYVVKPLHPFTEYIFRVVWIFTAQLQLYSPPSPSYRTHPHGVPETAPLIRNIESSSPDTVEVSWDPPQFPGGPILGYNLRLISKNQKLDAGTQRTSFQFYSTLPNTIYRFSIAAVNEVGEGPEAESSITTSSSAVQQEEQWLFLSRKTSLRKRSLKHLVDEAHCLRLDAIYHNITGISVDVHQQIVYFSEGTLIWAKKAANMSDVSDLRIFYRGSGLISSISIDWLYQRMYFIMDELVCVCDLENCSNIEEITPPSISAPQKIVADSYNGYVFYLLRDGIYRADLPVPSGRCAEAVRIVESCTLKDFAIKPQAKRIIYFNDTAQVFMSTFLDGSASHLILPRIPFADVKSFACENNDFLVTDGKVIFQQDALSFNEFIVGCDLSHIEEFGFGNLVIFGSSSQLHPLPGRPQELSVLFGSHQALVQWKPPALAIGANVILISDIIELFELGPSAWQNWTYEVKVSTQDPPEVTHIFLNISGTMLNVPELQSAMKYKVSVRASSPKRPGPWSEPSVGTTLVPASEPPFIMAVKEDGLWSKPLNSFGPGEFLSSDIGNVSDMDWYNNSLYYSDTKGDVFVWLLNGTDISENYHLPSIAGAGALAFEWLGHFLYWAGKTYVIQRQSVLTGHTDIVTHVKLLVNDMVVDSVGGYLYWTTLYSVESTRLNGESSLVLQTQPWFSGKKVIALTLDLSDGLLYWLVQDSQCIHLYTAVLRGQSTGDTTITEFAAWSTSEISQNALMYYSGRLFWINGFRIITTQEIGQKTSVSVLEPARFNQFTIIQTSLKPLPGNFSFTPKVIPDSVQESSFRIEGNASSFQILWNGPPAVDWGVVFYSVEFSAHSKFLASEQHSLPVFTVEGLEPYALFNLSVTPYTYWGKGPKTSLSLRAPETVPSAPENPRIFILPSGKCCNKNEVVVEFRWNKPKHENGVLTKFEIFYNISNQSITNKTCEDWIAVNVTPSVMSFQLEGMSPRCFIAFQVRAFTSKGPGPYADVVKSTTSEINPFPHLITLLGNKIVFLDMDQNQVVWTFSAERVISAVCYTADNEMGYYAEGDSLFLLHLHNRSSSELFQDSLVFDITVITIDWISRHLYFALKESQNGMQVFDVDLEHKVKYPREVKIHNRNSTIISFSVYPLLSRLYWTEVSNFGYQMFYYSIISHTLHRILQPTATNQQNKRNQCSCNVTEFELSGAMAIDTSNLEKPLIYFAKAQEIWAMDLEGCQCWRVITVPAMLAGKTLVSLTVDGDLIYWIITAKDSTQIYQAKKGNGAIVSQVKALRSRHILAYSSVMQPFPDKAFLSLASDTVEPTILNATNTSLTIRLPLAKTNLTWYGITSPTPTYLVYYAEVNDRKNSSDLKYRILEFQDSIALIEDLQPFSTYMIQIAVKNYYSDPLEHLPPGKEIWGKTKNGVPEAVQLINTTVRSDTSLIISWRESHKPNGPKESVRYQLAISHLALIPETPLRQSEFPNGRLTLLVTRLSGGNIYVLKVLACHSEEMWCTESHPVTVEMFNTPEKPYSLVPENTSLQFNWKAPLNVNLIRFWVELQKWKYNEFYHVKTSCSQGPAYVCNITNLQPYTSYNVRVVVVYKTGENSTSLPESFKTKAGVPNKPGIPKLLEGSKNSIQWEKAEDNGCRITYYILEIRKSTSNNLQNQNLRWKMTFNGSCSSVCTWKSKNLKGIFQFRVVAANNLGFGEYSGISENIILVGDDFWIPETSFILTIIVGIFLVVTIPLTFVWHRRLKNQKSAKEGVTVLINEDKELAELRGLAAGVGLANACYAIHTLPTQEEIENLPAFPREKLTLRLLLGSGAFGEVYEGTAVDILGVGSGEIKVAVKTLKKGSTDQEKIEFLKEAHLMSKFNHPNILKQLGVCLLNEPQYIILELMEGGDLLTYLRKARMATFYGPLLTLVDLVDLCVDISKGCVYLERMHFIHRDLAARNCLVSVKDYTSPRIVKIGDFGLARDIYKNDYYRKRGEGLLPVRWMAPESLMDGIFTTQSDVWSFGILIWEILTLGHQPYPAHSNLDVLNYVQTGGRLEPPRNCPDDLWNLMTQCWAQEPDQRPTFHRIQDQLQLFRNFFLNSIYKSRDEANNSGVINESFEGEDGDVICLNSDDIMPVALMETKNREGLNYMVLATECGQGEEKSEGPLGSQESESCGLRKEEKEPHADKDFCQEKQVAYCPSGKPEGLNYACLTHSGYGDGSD
row,Compound,IC50 [µM]
1,COCCOCCOCCOCCOCCOCCOCCOCCOP(=O)(OCCOCCOCCOCCOCCOCCOCCOCCOC)N1CCC(c2cc(OC(C)C)c(Nc3ncc(Cl)c(Nc4ccccc4S(=O)(=O)C(C)C)n3)cc2C)CC1 [Cer‐OEG8],0.1

# System: HeLa cells
# Assay: Cellular drug release in HeLa cells, LC–MS of cell lysate
# Assay type: cell-based
# Details: 20 μM, 48 h
# Experimental: HeLa cells are treated with Rib‐OEG4 for 48 h followed by cell lysis. The cell lysate is analyzed with liquid chromatography‐mass spectrometry (LC–MS). […] This confirms that release of the drug is possible in cells and that the low pH in some of the cell compartments, such as the lysosomes, yield release of the effective drug molecule.
# Cellular Drug‐Release with LC–MS: Drug release studies are performed according to previous publication with 20 μM of Rib‐OEG4 .[21]
row,Compound,release of native drug from prodrug in HeLa cells
1,COCCOCCOCCOCCOP(=O)(OCCOCCOCCOCCOC)N1CCN(c2ccc(Nc3ncc4cc(C(=O)N(C)C)n(C5CCCC5)c4n3)nc2)CC1 [Rib‐OEG4],most of the native drug has been released

# System: not listed separately
# Assay: Solubility limit in water (kinetic solubility) by UV/Vis optical density at 600 nm
# Assay type: physicochemical
# Details: kinetic from dmso stock, absorption at 600 nm, read-out: c sol (water), solubility limit in water
# Excerpt: With all purified compounds in hand, we start to analyze the different properties of the conjugates and discuss the influence of the OEG‐chain lengths. We determine the solubility in water with UV/Vis spectroscopy by measuring the optical density at 600 nm. The absorption (A) is plotted against varying concentration (c) of the drug conjugates (see Figure S1). In the range, in which the drug and their conjugates are still soluble, A can be fitted linearly. When the solubility limit is reached, the drug crashes out of solution leading to scattering and reduced transmission manifesting a threshold, upon which the increase in absorption is fitted with a second line of higher slope. The intersection between the two linear fits gives the critical concentration for the kinetic solubility c sol. Detailed solubility plots can be found in the supporting information (see Figure S1). In our previous study with n=4, the solubility of all three kinase inhibitor prodrugs in water is improved over the native drug. However, the extent of improvement varies between the different kinase inhibitor prodrugs. For a better overview, we have included the performance of our previous study (see Figure 2).[21] […] We observe an improvement of solubility upon conjugation with all of our different OEG‐phosphates.
# UV‐Vis Spectroscopy: Changes in solubility are measured with a Lambda 365 spectrometer by PerkinElmer supplied with UV WinLab software. Samples are prepared in water and placed in a 1 cm quartz cuvette.
row,Compound,solubility [µM]
1,COCCOCCOCCOCCOCCOCCOCCOCCOP(=O)(OCCOCCOCCOCCOCCOCCOCCOCCOC)N1CCC(c2cc(OC(C)C)c(Nc3ncc(Cl)c(Nc4ccccc4S(=O)(=O)C(C)C)n3)cc2C)CC1 [Cer‐OEG8],1750
2,COCCOCCOCCOCCOCCOCCOCCOCCOP(=O)(OCCOCCOCCOCCOCCOCCOCCOCCOC)N1CCN(c2ccc(Nc3ncc4c(C)c(C(C)=O)c(=O)n(C5CCCC5)c4n3)nc2)CC1 [Pal‐OEG8],≤ 3160
3,"CN(C)C(=O)c1cc2cnc(Nc3ccc(N4CCNCC4)cn3)nc2n1C1CCCC1 [Ribociclib, reference compound]",490
4,COCCOCCOCCOCCOP(=O)(OCCOCCOCCOCCOC)N1CCN(c2ccc(Nc3ncc4cc(C(=O)N(C)C)n(C5CCCC5)c4n3)nc2)CC1 [Rib‐OEG4],9330
5,COCCOCCOCCOCCOCCOCCOCCOCCOP(=O)(OCCOCCOCCOCCOCCOCCOCCOCCOC)N1CCN(c2ccc(Nc3ncc4cc(C(=O)N(C)C)n(C5CCCC5)c4n3)nc2)CC1 [Rib‐OEG8],1520

# Target: T2, cyclin‐dependent kinase 4 (CDK4) (Homo sapiens, UniProt P11802)
# T2 construct: purchased biomol
# Assay: CDK4 cell free enzyme (kinase) inhibition assay, luminescence
# Assay type: biochemical
# Details: 1 % DMSO, duplicates
# Experimental: as §1
# as §2, with “Binding Assays (CDK4):[21] […]” for “Binding Studies (ROS1):[21] ROS1 assays are performed with the following substances: Cer‐OEG2 , Cer‐OEG3 , Cer‐OEG8 , Cri‐OEG2 , Cri‐OEG3 and Cri‐OEG8 .”, “enzyme (10” for “enzyme (5”, “of 10x CDK4 substrate peptide” for “of IGF‐1Rtide (1 mg/mL)”
# T2 sequence (P11802 whole entry): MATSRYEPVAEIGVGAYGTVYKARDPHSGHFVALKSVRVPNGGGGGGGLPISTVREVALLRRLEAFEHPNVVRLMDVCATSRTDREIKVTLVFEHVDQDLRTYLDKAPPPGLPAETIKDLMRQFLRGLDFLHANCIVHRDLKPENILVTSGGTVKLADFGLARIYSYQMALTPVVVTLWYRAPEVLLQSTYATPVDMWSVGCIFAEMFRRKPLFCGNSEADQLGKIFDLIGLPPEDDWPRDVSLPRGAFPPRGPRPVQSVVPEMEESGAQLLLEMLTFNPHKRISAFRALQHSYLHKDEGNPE
# T2 sequence (P30281 whole entry partner): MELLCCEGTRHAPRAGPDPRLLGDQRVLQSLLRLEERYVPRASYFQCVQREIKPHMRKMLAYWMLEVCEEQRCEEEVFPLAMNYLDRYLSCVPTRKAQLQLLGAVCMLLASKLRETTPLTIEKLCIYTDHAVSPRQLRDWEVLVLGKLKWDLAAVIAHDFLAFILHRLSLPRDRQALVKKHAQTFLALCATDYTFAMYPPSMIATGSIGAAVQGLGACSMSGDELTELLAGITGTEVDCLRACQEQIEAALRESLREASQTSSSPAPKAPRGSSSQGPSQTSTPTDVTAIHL
row,Compound,IC50
1,COCCOCCOCCOCCOCCOCCOCCOCCOP(=O)(OCCOCCOCCOCCOCCOCCOCCOCCOC)N1CCN(c2ccc(Nc3ncc4c(C)c(C(C)=O)c(=O)n(C5CCCC5)c4n3)nc2)CC1 [Pal‐OEG8],0.215 to 0.27 µM and 0.27 µM
2,COCCOCCOCCOCCOP(=O)(OCCOCCOCCOCCOC)N1CCN(c2ccc(Nc3ncc4cc(C(=O)N(C)C)n(C5CCCC5)c4n3)nc2)CC1 [Rib‐OEG4],0.012 µM
3,COCCOCCOCCOCCOCCOCCOCCOCCOP(=O)(OCCOCCOCCOCCOCCOCCOCCOCCOC)N1CCN(c2ccc(Nc3ncc4cc(C(=O)N(C)C)n(C5CCCC5)c4n3)nc2)CC1 [Rib‐OEG8],0.4 µM
